13 compounds from US8901118B2, “Compounds and methods for kinase modulation, and indications therefor” (Plexxikon Inc., priority 2010, dated 2014) can be followed below.

Structures are written as SMILES. A value given as a limit tells only on which side of the number the result lay.

The assay deals with TrkA kinase (Homo sapiens, UniProt P04629). The experiment in a line: TrkA kinase biochemical activity assay (AlphaScreen). The conditions noted are these: 100 μM ATP; read-out: Biochemical Inhibition IC50 TrkA. The essentials:
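Recombinant TrkA with 30 nM biotin-(E4Y)10 and 100 μM ATP in 25 mM Hepes pH 7.5, 10 mM MnCl2, 5% DMSO, 40 min at room temperature. Phosphorylation read by AlphaScreen (streptavidin donor, PY20 acceptor beads); IC50 from signal vs compound concentration. TrkC run similarly.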

Sequence of TrkA kinase (P04629 33-796): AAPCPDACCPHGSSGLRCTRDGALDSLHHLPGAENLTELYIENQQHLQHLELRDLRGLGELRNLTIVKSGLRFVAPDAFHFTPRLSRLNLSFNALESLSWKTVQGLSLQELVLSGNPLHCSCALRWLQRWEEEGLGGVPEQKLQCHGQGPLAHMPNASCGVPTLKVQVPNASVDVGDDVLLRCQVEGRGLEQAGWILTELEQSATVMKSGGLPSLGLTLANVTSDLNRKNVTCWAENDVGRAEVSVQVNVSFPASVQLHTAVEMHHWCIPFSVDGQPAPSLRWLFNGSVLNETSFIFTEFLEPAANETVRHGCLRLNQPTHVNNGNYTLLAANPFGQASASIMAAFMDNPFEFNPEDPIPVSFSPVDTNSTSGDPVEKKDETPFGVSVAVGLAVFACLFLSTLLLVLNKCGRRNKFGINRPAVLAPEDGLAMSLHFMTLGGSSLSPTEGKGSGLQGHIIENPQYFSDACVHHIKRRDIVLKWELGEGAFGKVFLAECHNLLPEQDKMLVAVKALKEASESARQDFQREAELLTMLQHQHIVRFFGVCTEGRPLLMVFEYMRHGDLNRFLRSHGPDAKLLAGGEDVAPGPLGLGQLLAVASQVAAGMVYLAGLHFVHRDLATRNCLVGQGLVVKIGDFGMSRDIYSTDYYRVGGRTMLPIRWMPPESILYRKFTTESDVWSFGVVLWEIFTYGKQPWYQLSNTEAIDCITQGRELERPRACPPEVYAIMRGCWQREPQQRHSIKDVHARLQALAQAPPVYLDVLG

For the compound `CSc1ccc(Nc2ncc(Cc3c[nH]c4ncc(C)cc34)cn2)cc1` [Compound P-3033, [5-(5-Methyl-1H-pyrrolo[2,3-b]pyridin-3-ylmethyl)-pyrimidin-2-yl]-(4-methylsulfanyl-phenyl)-amine], the 50% inhibitory concentration (IC50) was < 10 nM.

As for `Cc1cnc2[nH]cc(Cc3cnc(Nc4ccc(S(C)(=O)=O)cc4)nc3)c2c1` [Compound P-3034, (4-Methanesulfonyl-phenyl)-[5-(5-methyl-1H-pyrrolo[2,3-b]pyridin-3-ylmethyl)-pyrimidin-2-yl]-amine], the IC50 was < 1000 nM. The value for `CCn1ccc(Nc2ncc(Cc3c[nH]c4ncc(C)cc34)cn2)n1` [Compound P-3035, (1-Ethyl-1H-pyrazol-3-yl)-[5-(5-methyl-1H-pyrrolo[2,3-b]pyridin-3-ylmethyl)-pyrimidin-2-yl]-amine] was < 1000 nM; that for `CCn1cc(Nc2ncc(Cc3c[nH]c4ncc(C)cc34)cn2)cn1` [Compound P-3036, (1-Ethyl-1H-pyrazol-4-yl)-[5-(5-methyl-1H-pyrrolo[2,3-b]pyridin-3-ylmethyl)-pyrimidin-2-yl]-amine] was < 1000 nM; that for `Cc1ccc(Nc2ccc(Cc3c[nH]c4ncc(Cl)cc34)c(F)n2)cn1` [Compound P-3042, [5-(5-Chloro-1H-pyrrolo[2,3-b]pyridin-3-ylmethyl)-6-fluoro-pyridin-2-yl]-(6-methyl-pyridin-3-yl)-amine] was < 100 nM. As for `CCOc1ccc(Nc2ccc(C(=O)c3c[nH]c4ncc(C)cc34)c(F)n2)cn1` [Compound P-3045, [6-(6-ethoxy-pyridin-3-ylamino)-2-fluoro-pyridin-3-yl]-(5-methyl-1H-pyrrolo[2,3-b]pyridin-3-yl)-methanone], the IC50 is < 10 nM.

Consider `CCOc1ncnc2[nH]cc(Cc3ccc(Nc4ccc(Br)nc4)nc3F)c12` [Compound P-4020, (6-Bromo-pyridin-3-yl)-[5-(4-ethoxy-7H-pyrrolo[2,3-d]pyrimidin-5-ylmethyl)-6-fluoro-pyridin-2-yl]-amine], for which the IC50 was < 10 nM. `CCOc1ncnc2[nH]cc(Cc3ccc(Nc4cccnc4)nc3F)c12` [Compound P-4021, [5-(4-Ethoxy-7H-pyrrolo[2,3-d]pyrimidin-5-ylmethyl)-6-fluoro-pyridin-2-yl]-pyridin-3-yl-amine]: the concentration for half-maximal inhibition (IC50) was < 1000 nM. Next, `CCOc1ccc(Nc2ccc(Cc3c[nH]c4ncnc(C5CC5)c34)c(F)n2)cn1` [Compound P-4026, [5-(4-Cyclopropyl-7H-pyrrolo[2,3-d]pyrimidin-5-ylmethyl)-6-fluoro-pyridin-2-yl]-(6-ethoxy-pyridin-3-yl)-amine]: < 10 nM; `CCOc1ccc(Nc2ccc(C(=O)c3c[nH]c4ncnc(C5CC5)c34)c(F)n2)cn1` [Compound P-4027, (4-Cyclopropyl-7H-pyrrolo[2,3-d]pyrimidin-5-yl)-[6-(6-ethoxy-pyridin-3-ylamino)-2-fluoro-pyridin-3-yl]-methanone]: < 10 nM; `CCOc1ccc(Nc2ccc(C(=O)c3c[nH]c4ncnc(C)c34)c(F)n2)cn1` [Compound P-4032, [6-(6-Ethoxy-pyridin-3-ylamino)-2-fluoro-pyridin-3-yl]-(4-methyl-7H-pyrrolo[2,3-d]pyrimidin-5-yl)-methanone]: < 100 nM.

For `Cc1cncc(Nc2ccc(Cc3c[nH]c4ncnc(C5CC5)c34)c(F)n2)c1` [Compound P-4038, [5-(4-Cyclopropyl-7H-pyrrolo[2,3-d]pyrimidin-5-ylmethyl)-6-fluoro-pyridin-2-yl]-(5-methyl-pyridin-3-yl)-amine], the IC50 is < 100 nM. Next, `Cc1cncc(Nc2ccc(C(=O)c3c[nH]c4ncnc(C5CC5)c34)c(F)n2)c1` [Compound P-4039, (4-Cyclopropyl-7H-pyrrolo[2,3-d]pyrimidin-5-yl)-[2-fluoro-6-(5-methyl-pyridin-3-ylamino)-pyridin-3-yl]-methanone]: < 100 nM.
